Measured values as given in patent US20230009626A1 (ICHNOS SCIENCES S.A., priority 2018, published 2023).

Molecular target: HPK1 (MAP4K1) (Homo sapiens, UniProt Q92918)
Assay: FRET Assay for HPK1 (MAP4K1): one step binding assay, displacement of labeled tracer
Settings: for inhibition at 1 µM: 1 μM compound; for inhibition at 1 µM / inhibition at 10 µM: FRET ratio 665/620, percent of control; for inhibition at 10 µM: 10 μM compound; for IC50: dose response curve, nonlinear regression
Procedure, shortened: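 Percent inhibition at 1.0 and 10.0 μM and IC50 by nonlinear regression were derived from loss of FRET signal versus control. The signal runs from Eu-anti-GST antibody (4 nM) bound to 10 nM HPK1 kinase to Alexa Fluor 647 Kinase Tracer 222 (20 nM), added after a 15-min on-ice compound pre-incubation. Binding then proceeded 1 h at room temperature in HEPES pH 7.5 buffer with 10 mM MgCl2, 1 mM EGTA, 0.01% Brij-35 and 3% DMSO.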

HPK1 (MAP4K1), sequence (Q92918 whole entry): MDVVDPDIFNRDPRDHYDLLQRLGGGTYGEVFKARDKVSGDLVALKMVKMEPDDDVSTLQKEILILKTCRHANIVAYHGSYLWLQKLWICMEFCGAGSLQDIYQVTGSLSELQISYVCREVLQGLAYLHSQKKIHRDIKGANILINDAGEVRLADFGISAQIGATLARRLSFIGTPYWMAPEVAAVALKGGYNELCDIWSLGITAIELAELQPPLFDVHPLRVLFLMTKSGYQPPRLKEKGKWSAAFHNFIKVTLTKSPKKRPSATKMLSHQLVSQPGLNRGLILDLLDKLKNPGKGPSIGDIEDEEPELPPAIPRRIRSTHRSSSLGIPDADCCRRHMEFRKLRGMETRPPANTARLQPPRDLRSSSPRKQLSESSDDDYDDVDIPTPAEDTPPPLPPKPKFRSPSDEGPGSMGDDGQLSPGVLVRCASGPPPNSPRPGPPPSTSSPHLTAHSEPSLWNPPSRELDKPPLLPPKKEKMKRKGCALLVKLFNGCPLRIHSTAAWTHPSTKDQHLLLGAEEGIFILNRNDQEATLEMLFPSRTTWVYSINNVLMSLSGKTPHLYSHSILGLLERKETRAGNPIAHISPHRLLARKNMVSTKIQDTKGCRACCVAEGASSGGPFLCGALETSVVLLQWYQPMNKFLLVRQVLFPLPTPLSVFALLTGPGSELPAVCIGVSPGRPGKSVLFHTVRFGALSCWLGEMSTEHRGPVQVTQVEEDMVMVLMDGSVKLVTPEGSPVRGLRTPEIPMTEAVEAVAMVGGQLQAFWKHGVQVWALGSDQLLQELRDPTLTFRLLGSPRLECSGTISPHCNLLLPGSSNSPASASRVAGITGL

## C/C(Nc1cnn(C)c1)=C1/C(=O)Nc2cnc(-c3cc(C#N)ccc3C)cc21 [Example 187, (Z)-4-Methyl-3-(3-(1-((1-methyl-1H-pyrazol-4-yl)amino)ethylidene)-2-oxo-2,3-dihydro-1H-pyrrolo[2,3-c]pyridin-5-yl)benzonitrile]
  inhibition at 1 µM: 66.4%
  inhibition at 10 µM: 19.6%

## C/C(Nc1cc(C)n(C[C@@H](C)O)n1)=C1/C(=O)Nc2cnc(-c3cnccc3C)cc21 [Example 188, (R,Z)-3-(1-((1-(2-Hydroxypropyl)-5-methyl 1H-pyrazol-3-yl)amino)ethylidene)-5-(4-methylpyridin-3-yl)-1H-pyrrolo[2,3-c]pyridin-2(3H)-one]
  inhibition at 1 µM: 71%
  inhibition at 10 µM: 76%
  IC50: < 50 nM

## C/C(Nc1cc(C)n(CC2CC2)n1)=C1/C(=O)Nc2cnc(-c3cnccc3C)cc21 [Example 189, (Z)-3-(1-((1-(cyclopropylmethyl)-5-methyl-1H-pyrazol-3-yl)amino)ethylidene)-5-(4-methylpyridin-3-yl)-1H-pyrrolo[2,3-c]pyridin-2(3H)-one]
  inhibition at 1 µM: 73.5%
  inhibition at 10 µM: 76.9%
  IC50: < 50 nM

## C/C(Nc1cc(C)n(CC[C@@H](C)O)n1)=C1/C(=O)Nc2cnc(-c3cnccc3C)cc21 [Example 190, (R,Z)-3-(1-((1-(3-Hydroxybutyl)-5-methyl-1H-pyrazol-3-yl)amino)ethylidene)-5-(4-methylpyridin-3-yl)-1H-pyrrolo[2,3-c]pyridin-2(3H)-one]
  inhibition at 1 µM: 52.4%
  inhibition at 10 µM: 68.6%
  IC50: > 500 nM

## C/C(Nc1cc(C)n(C)n1)=C1/C(=O)Nc2cnc(-c3c(C)cccc3F)cc21 [Example 191, (Z)-3-(1-((1,5-dimethyl-1H-pyrazol-3-yl)amino)ethylidene)-5-(2-fluoro-6-methylphenyl)-1H-pyrrolo[2,3-c]pyridin-2(3H)-one]
  inhibition at 1 µM: 69.6%
  inhibition at 10 µM: 82.2%
  IC50: < 50 nM

## C/C(Nc1cc2n(n1)CCOC2)=C1/C(=O)Nc2cnc(-c3c(C)cccc3F)cc21 [Example 192, (Z)-3-(1-((6,7-Dihydro-4H-pyrazolo[5,1-c][1,4]oxazin-2-yl)amino)ethylidene)-5-(2-fluoro-6-methylphenyl)-1H-pyrrolo[2,3-c]pyridin-2(3H)-one]
  inhibition at 1 µM: 62.1%
  inhibition at 10 µM: 68.3%
  IC50: < 50 nM

## C/C(Nc1cc2n(n1)CCOC2)=C1/C(=O)Nc2ccc(-c3cnccc3C)cc21 [Example 193, (Z)-3-(1-((6,7-Dihydro-4H-pyrazolo[5,1-c][1,4]oxazin-2-yl)amino)ethylidene)-5-(4-methylpyridin-3-yl)indolin-2-one]
  inhibition at 1 µM: 78.2%
  inhibition at 10 µM: 74.5%
  IC50: < 50 nM

## C/C(Nc1cc(C)n(C)n1)=C1/C(=O)Nc2ccc(-c3cnccc3C)cc21 [Example 194, (Z)-3-(1-((1,5-Dimethyl-1H-pyrazol-3-yl)amino)ethylidene)-5-(4-methylpyridin-3-yl)indolin-2-one]
  inhibition at 1 µM: 68.6%
  inhibition at 10 µM: 66.6%
  IC50: < 50 nM

## C/C(Nc1cc(C)n(CC[C@H](C)O)n1)=C1/C(=O)Nc2cnc(-c3cnccc3C)cc21 [Example 195, (S,Z)-3-(1-((1-(3-Hydroxybutyl)-5-methyl-1H-pyrazol-3-yl)amino)ethylidene)-5-(4-methylpyridin-3-yl)-1H-pyrrolo[2,3-c]pyridin-2(3H)-one]
  inhibition at 1 µM: 25.1%
  inhibition at 10 µM: 61.1%

## C/C(Nc1ccn(CC[C@H](C)O)n1)=C1/C(=O)Nc2cnc(-c3cnccc3C)cc21 [Example 196, (S,Z)-3-(1-((1-(3-hydroxybutyl)-1H-pyrazol-3-yl)amino)ethylidene)-5-(4-methylpyridin-3-yl)-1H-pyrrolo[2,3-c]pyridin-2(3H)-one]
  inhibition at 1 µM: 65%
  inhibition at 10 µM: 66.3%
  IC50: < 50 nM

## C/C(Nc1cc(C)n(C(C)(C)C#N)n1)=C1/C(=O)Nc2cnc(-c3cnccc3C)cc21 [Example 197, (Z)-2-Methyl-2-(5-methyl-3-((1-(5-(4-Methylpyridin-3-yl)-2-oxo-1H-pyrrolo[2,3-c]pyridin-3(2H)-ylidene)ethyl)amino)-1H-pyrazol-1-yl)propanenitrile]
  inhibition at 1 µM: 69.8%
  inhibition at 10 µM: 70.1%
  IC50: < 50 nM

## C/C(Nc1cc(C)n([C@H](C)C#N)n1)=C1/C(=O)Nc2cnc(-c3cnccc3C)cc21 [Example 198, (R,Z)-2-(5-Methyl-3-((1-(5-(4-methylpyridin-3-yl)-2-oxo-1H-pyrrolo[2,3-c]pyridin-3(2H)-ylidene)ethyl)amino)-1H-pyrazol-1-yl)propanenitrile]
  inhibition at 1 µM: 73.8%
  inhibition at 10 µM: 71.1%
  IC50: < 50 nM

## C/C(Nc1cc(C)n([C@H](C)C#N)n1)=C1/C(=O)Nc2cnc(-c3c(C)cccc3F)cc21 [Example 199, (R,Z)-2-(3-((1-(5-(2-Fluoro-6-methylphenyl)-2-oxo-1H-pyrrolo[2,3-c]pyridin-3(2H)-ylidene)ethyl)amino)-5-methyl-1H-pyrazol-1-yl)propanenitrile]
  inhibition at 1 µM: 71.7%
  IC50: < 50 nM

## C/C(Nc1cc(C)n(CC(C)(C)O)n1)=C1/C(=O)Nc2cnc(-c3c(C)cccc3F)cc21 [Example 200, (Z)-5-(2-Fluoro-6-methylphenyl)-3-(1-((1-(2-hydroxy-2-methylpropyl)-5-methyl-1H-pyrazol-3-yl)amino)ethylidene)-1H-pyrrolo[2,3-c]pyridin-2(3H)-one]
  inhibition at 1 µM: 70.7%
  inhibition at 10 µM: 71.9%
  IC50: < 50 nM

## C/C(Nc1cc(C)n(CC(F)F)n1)=C1/C(=O)Nc2cnc(-c3c(C)cccc3F)cc21 [Example 201, (Z)-3-(1-((1-(2,2-Difluoroethyl)-5-methyl-1H-pyrazol-3-yl)amino)ethylidene)-5-(2-fluoro-6-methylphenyl)-1H-pyrrolo[2,3-c]pyridin-2(3H)-one]
  inhibition at 1 µM: 65.7%
  inhibition at 10 µM: 73.6%
  IC50: < 50 nM

## C/C(Nc1cc(C)n(CC(C)C)n1)=C1/C(=O)Nc2cnc(-c3c(C)cccc3F)cc21 [Example 202, (Z)-5-(2-Fluoro-6-methylphenyl)-3-(1-((1-isobutyl-5-methyl-1H-pyrazol-3-yl)amino)ethylidene)-1H-pyrrolo[2,3-c]pyridin-2(3H)-one]
  inhibition at 1 µM: 75.7%
  inhibition at 10 µM: 61%
  IC50: < 50 nM

## C/C(Nc1cc(C)n(CCC(C)(C)O)n1)=C1/C(=O)Nc2cnc(-c3c(C)cccc3F)cc21 [Example 203, (Z)-5-(2-Fluoro-6-methylphenyl)-3-(1-((1-(3-hydroxy-3-methylbutyl)-5-methyl-1H-pyrazol-3-yl)amino)ethylidene)-1H-pyrrolo[2,3-c]pyridin-2(3H)-one]
  inhibition at 1 µM: 67.6%
  inhibition at 10 µM: 83%
  IC50: < 50 nM

## C/C(Nc1cc(C)n(CCC(C)C)n1)=C1/C(=O)Nc2cnc(-c3cnccc3C)cc21 [Example 204, (Z)-3-(1-((1-Isopentyl-5-methyl-1H-pyrazol-3-yl)amino)ethylidene)-5-(4-methylpyridin-3-yl)-1H-pyrrolo[2,3-c]pyridin-2(3H)-one]
  inhibition at 1 µM: 72.7%
  inhibition at 10 µM: 86.1%
  IC50: < 50 nM

## C/C(Nc1ncc(C)s1)=C1/C(=O)Nc2cnc(-c3c(C)cccc3F)cc21 [Example 205, (Z)-5-(2-Fluoro-6-methylphenyl)-3-(1-((5-methylthiazol-2-yl)amino)ethylidene)-1H-pyrrolo[2,3-c]pyridin-2(3H)-one]
  inhibition at 1 µM: 73.3%
  IC50: < 50 nM

## C/C(Nc1cc2n(n1)CC(=O)N(C(C)C)C2)=C1/C(=O)Nc2cnc(-c3c(C)cccc3F)cc21 [Example 206, (Z)-2-((1-(5-(2-Fluoro-6-methylphenyl)-2-oxo-1H-pyrrolo[2,3-c]pyridin-3(2H)-ylidene)ethyl)amino)-5-isopropyl-4,5-dihydropyrazolo[1,5-a]pyrazin-6(7H)-one]
  inhibition at 1 µM: 72.4%
  inhibition at 10 µM: 84.9%
  IC50: < 50 nM

## C/C(Nc1cc(C)n(C(C)(C)C#N)n1)=C1/C(=O)Nc2cnc(-c3c(C)cccc3F)cc21 [Example 207, (Z)-2-(3-((1-(5-(2-Fluoro-6-methylphenyl)-2-oxo-1H-pyrrolo[2,3-c]pyridin-3(2H)-ylidene)ethyl)amino)-5-methyl-1H-pyrazol-1-yl)-2-methylpropanenitrile]
  inhibition at 1 µM: 73.8%
  IC50: < 50 nM

## C/C(Nc1cc(C)n([C@@H](C)C#N)n1)=C1/C(=O)Nc2cnc(-c3c(C)cccc3F)cc21 [Example 208, (S,Z)-2-(3-((1-(5-(2-Fluoro-6-methylphenyl)-2-oxo-1H-pyrrolo[2,3-c]pyridin-3(2H)-ylidene)ethyl)amino)-5-methyl-1H-pyrazol-1-yl)propanenitrile]
  inhibition at 1 µM: 79.7%
  IC50: < 50 nM

## C/C(Nc1cc(C)n(C[C@H](C)O)n1)=C1/C(=O)Nc2cnc(-c3c(C)cccc3F)cc21 [Example 209, (S,Z)-5-(2-Fluoro-6-methylphenyl)-3-(1-((1-(2-hydroxypropyl)-5-methyl-1H-pyrazol-3-yl)amino)ethylidene)-1H-pyrrolo[2,3-c]pyridin-2(3H)-one]
  inhibition at 1 µM: 75.7%
  inhibition at 10 µM: 78.9%
  IC50: < 50 nM

## C/C(Nc1cc(C)n(C)n1)=C1/C(=O)Nc2cnc(-c3cc(F)ccc3C)cc21 [Example 210, (Z)-3-(1-((1,5-Dimethyl-1H-pyrazol-3-yl)amino)ethylidene)-5-(5-fluoro-2-methylphenyl)-1H-pyrrolo[2,3-c]pyridin-2(3H)-one]
  inhibition at 1 µM: 70.8%
  IC50: < 50 nM

## C/C(Nc1cc(C)n(C(C)C)n1)=C1/C(=O)Nc2cnc(-c3cnccc3C)cc21 [Example 211, (Z)-3-(1-((1-Isopropyl-5-methyl-1H-pyrazol-3-yl)amino)ethylidene)-5-(4-methylpyridin-3-yl)-1H-pyrrolo[2,3-c]pyridin-2(3H)-one]
  inhibition at 1 µM: 76.9%
  inhibition at 10 µM: 79.4%
  IC50: < 50 nM
